Like-named read-outs stand apart in the source and are kept apart here.
Assays:
[1] = tested on: Mycosphaerella graminicola; Anamorph: Septoria tritici; experiment: Leaf Blotch of Wheat fungicidal activity (SEPTTR); assay type: in vivo; conditions: Zymoseptoria tritici; for pest or weed control at 100 ppm: rate 100 ppm; for pest or weed control at 121.5 g/ha: rate 121.5 g/H
Experimental: Evaluation of Fungicidal Activity: Leaf Blotch of Wheat (Mycosphaerella graminicola; Anamorph: Septoria tritici; Bayer code […]) Technical grades of materials were dissolved in acetone, which were then mixed with nine volumes of water containing 110 ppm Triton X-100. The fungicide solutions were applied onto wheat seedlings using an automated booth sprayer to run-off. All sprayed plants were allowed to air dry prior to further handling. All fungicides were evaluated using the aforementioned method for their activity vs. all target diseases. Wheat leaf blotch and brown rust activity were also evaluated using track spray applications, in which case the fungicides were formulated as EC formulations, containing 0.1% Trycol 5941 in the spray solutions. Wheat plants (variety Yuma) were grown from seed in a greenhouse in 50% mineral soil/50% soil-less Metro mix until the first leaf was fully emerged, with 7-10 seedlings per pot. These plants were inoculated with an aqueous spore suspension of Septoria tritici either prior to or after fungicide treatments. After inoculation the plants were kept in 100% relative humidity (one day in a dark dew chamber followed by two to three days in a lighted dew chamber at 20° C.) to permit spores to germinate and infect the leaf. The plants were then transferred to a greenhouse set at 20° C. for disease to develop. When disease symptoms were fully expressed on the 1st leaves of untreated plants, infection levels were assessed on a scale of 0 to 100 percent disease severity. Percent disease control was calculated using the ratio of disease severity on treated plants relative to untreated plants.

[2] = tested on: Puccinia triticina; experiment: Wheat Brown Rust fungicidal activity (PUCCRT); assay type: in vivo; conditions: Puccinia triticina; for pest or weed control at 100 ppm: rate 100 ppm; for pest or weed control at 121.5 g/ha: rate 121.5 g/H
Experimental: Technical grades of materials were dissolved in acetone, which were then mixed with nine volumes of water containing 110 ppm Triton X-100. The fungicide solutions were applied onto wheat seedlings using an automated booth sprayer to run-off. All sprayed plants were allowed to air dry prior to further handling. All fungicides were evaluated using the aforementioned method for their activity vs. all target diseases. Wheat leaf blotch and brown rust activity were also evaluated using track spray applications, in which case the fungicides were formulated as EC formulations, containing 0.1% Trycol 5941 in the spray solutions. Wheat plants (variety Yuma) were grown from seed in a greenhouse in 50% mineral soil/50% soil-less Metro mix until the first leaf was fully emerged, with 7-10 seedlings per pot. These plants were inoculated with an aqueous spore suspension of Septoria tritici either prior to or after fungicide treatments. After inoculation the plants were kept in 100% relative humidity (one day in a dark dew chamber followed by two to three days in a lighted dew chamber at 20° C.) to permit spores to germinate and infect the leaf. The plants were then transferred to a greenhouse set at 20° C. for disease to develop. When disease symptoms were fully expressed on the 1st leaves of untreated plants, infection levels were assessed on a scale of 0 to 100 percent disease severity. Percent disease control was calculated using the ratio of disease severity on treated plants relative to untreated plants. Evaluation of Fungicidal Activity: Wheat Brown Rust (Puccinia triticina; Synonym: Puccinia recondite f sp. tritici; Bayer code PUCCRT) Wheat plants (variety Yuma) were grown from seed in a greenhouse in 50% mineral soil/50% soil-less Metro mix until the first leaf was fully emerged, with 7-10 seedlings per pot. These plants were inoculated with an aqueous spore suspension of Puccinia triticina either prior to or after fungicide treatments. After inoculation the plants were kept in a dark dew room at 22° C. with 100% relative humidity overnight to permit spores to germinate and infect the leaf. The plants were then transferred to a greenhouse set at 24° C. for disease to develop. Fungicide formulation, application and disease assessment followed the procedures as described in the Example A.

[3] = 24 h, 1 Day Protectant, read-out: Disease control SEPTTR 1DP
[4] = 72 h, 3 Day Curative, read-out: Disease control SEPTTR 3DC
[5] = 24 h, 1 Day Protectant, read-out: Disease control PUCCRT 1DP
[6] = 72 h, 3 Day Curative, read-out: Disease control PUCCRT 3DC

Structure (SMILES)	pest or weed control at 100 ppm [1, 3]	pest or weed control at 121.5 g/ha [1, 3]	pest or weed control at 100 ppm [1, 4]	pest or weed control at 121.5 g/ha [1, 4]	pest or weed control at 100 ppm [2, 5]	pest or weed control at 121.5 g/ha [2, 5]	pest or weed control at 100 ppm [2, 6]	pest or weed control at 121.5 g/ha [2, 6]
COc1ccnc(C(=O)N[C@H]2COC[C@H](Cc3ccc(C(F)(F)F)cc3)[C@@H](OCC(C)C)[C@H](C)OC2=O)c1OC(C)=O [Compound F65]	80 to 100%	80 to 100%	80 to 100%	80 to 100%	80 to 100%	80 to 100%	80 to 100%	0 to 80%
COc1ccnc(C(=O)N[C@H]2COC[C@H](Cc3ccc(C(F)(F)F)cc3)[C@@H](OC3CCCC3)[C@H](C)OC2=O)c1OC(C)=O [Compound F66]	80 to 100%	80 to 100%	0 to 80%	0 to 80%	80 to 100%	80 to 100%	0 to 80%	0 to 80%
COc1ccnc(C(=O)N[C@H]2COC[C@H](Cc3ccc(C(F)(F)F)cc3)[C@@H](OC(=O)C(C)C)[C@H](C)OC2=O)c1OC(C)=O [Compound F67]	80 to 100%		0 to 80%		80 to 100%		80 to 100%	
COc1ccnc(C(=O)N[C@H]2COC[C@H](CCC(C)C)[C@@H](OCC(C)C)[C@H](C)OC2=O)c1OC(C)=O [Compound F68]	80 to 100%	80 to 100%	80 to 100%	80 to 100%	80 to 100%	80 to 100%	80 to 100%	80 to 100%
COc1ccnc(C(=O)N[C@H]2COC[C@H](CCC(C)C)[C@@H](Oc3ccc(C)cc3)[C@H](C)OC2=O)c1OC(C)=O [Compound F69]	80 to 100%	80 to 100%	80 to 100%	80 to 100%	80 to 100%	80 to 100%	80 to 100%	0 to 80%
CCCO[C@@H]1[C@@H](CCC(C)C)COC[C@H](NC(=O)c2nccc(OC)c2OC(C)=O)C(=O)O[C@H]1C [Compound F70]	80 to 100%		80 to 100%		80 to 100%		80 to 100%	
COc1ccnc(C(=O)N[C@H]2COC[C@H](CCC(C)C)[C@@H](OC3CCCC3)[C@H](C)OC2=O)c1OC(C)=O [Compound F71]	80 to 100%		80 to 100%		80 to 100%		80 to 100%	
COc1ccnc(C(=O)N[C@H]2COC[C@H](Cc3cc(F)c(F)c(F)c3)[C@@H](OCC(C)C)[C@H](C)OC2=O)c1OC(C)=O [Compound F72]	80 to 100%	80 to 100%	80 to 100%	80 to 100%	80 to 100%	80 to 100%	80 to 100%	80 to 100%
COc1ccnc(C(=O)N[C@H]2COC[C@H](Cc3cccc4ccccc34)[C@@H](OC3CCCC3)[C@H](C)OC2=O)c1OCOC(C)=O [Compound F86]	80 to 100%		80 to 100%		80 to 100%		80 to 100%	
